The record followed here is ChEMBL document CHEMBL5500354, “Novel selective agents for the degradation of AR/AR-V7 to treat advanced prostate cancer” (Eur J Med Chem, 2024).

In test [1] the test system is CWR22R. The experiment in a line: cells. The following applies: Homo sapiens, 22Rv1, 24 h, read-out: INH.
Description: Antiproliferative activity against human 22Rv1 cells assessed as inhibition rate at 10 uM incubated for 24 hrs by CCK8 assay relative to control
Test [2] deals with T1, Androgen receptor (Homo sapiens, UniProt P10275).
T1 sequence (P10275 whole entry): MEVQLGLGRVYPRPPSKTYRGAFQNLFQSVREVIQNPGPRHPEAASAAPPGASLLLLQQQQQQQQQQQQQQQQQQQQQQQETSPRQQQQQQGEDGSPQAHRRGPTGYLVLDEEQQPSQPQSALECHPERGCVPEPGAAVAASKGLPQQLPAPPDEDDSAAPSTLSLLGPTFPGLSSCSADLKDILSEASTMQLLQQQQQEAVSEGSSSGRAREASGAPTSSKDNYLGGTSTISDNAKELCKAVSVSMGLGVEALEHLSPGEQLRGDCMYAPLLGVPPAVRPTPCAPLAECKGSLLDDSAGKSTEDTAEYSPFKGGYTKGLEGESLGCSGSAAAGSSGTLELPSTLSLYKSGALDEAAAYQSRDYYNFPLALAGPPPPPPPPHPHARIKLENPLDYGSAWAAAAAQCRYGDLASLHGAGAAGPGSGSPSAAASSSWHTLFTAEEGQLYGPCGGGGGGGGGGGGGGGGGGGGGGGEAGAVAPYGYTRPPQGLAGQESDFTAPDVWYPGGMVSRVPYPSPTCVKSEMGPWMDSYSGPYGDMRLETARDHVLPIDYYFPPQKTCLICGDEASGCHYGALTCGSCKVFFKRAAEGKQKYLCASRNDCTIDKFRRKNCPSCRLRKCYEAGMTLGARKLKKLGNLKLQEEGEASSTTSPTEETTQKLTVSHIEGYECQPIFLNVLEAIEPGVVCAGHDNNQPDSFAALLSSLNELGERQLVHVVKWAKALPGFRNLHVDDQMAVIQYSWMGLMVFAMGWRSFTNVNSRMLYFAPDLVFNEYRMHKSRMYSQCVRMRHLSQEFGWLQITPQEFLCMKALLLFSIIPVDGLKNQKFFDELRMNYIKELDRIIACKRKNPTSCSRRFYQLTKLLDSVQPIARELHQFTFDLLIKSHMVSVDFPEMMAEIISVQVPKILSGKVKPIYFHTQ
The experiment in a line: Binding affinity to human androgen receptor transfected in HEK293 cell membrane co-transfected with ARC1 assessed as inhibition of [3H]-methyltrienolone binding to receptor incubated for 30 mins by competitive ligand binding assay.

In test [3] the target is T1, Androgen receptor.
Description: Antagonist activity at androgen receptor (unknown origin) transfected in HEK293T cells co-transfected with luciferase reporter gene assessed as inhibition of transcriptional activity incubated for 18 to 20 hrs by luminescence plate reader analysis
For test [4], the system named is LNCaP. The experiment in a line: cells. Particulars: Homo sapiens, 24 h, read-out: INH.
Description: Antiproliferative activity against human LNCaP cells assessed as inhibition rate at 10 uM incubated for 24 hrs by CCK8 assay relative to control
Test [5] has as its system CWR22R. Briefly: Antiproliferative activity against human 22Rv1 cells assessed as reduction in cell viability incubated for 24 hrs by CCK8 assay. The following applies: 22Rv1, 24 h. Background: Formazan colour is commonly taken as a measure of viable cells.
In test [6] the test system is LNCaP. The experiment in a line: Antiproliferative activity against human LNCaP cells assessed as reduction in cell viability incubated for 24 hrs by CCK8 assay.
Test [7] concerns the target T2, Androgen receptor (Rattus norvegicus, UniProt P15207).
T2 sequence (P15207 whole entry): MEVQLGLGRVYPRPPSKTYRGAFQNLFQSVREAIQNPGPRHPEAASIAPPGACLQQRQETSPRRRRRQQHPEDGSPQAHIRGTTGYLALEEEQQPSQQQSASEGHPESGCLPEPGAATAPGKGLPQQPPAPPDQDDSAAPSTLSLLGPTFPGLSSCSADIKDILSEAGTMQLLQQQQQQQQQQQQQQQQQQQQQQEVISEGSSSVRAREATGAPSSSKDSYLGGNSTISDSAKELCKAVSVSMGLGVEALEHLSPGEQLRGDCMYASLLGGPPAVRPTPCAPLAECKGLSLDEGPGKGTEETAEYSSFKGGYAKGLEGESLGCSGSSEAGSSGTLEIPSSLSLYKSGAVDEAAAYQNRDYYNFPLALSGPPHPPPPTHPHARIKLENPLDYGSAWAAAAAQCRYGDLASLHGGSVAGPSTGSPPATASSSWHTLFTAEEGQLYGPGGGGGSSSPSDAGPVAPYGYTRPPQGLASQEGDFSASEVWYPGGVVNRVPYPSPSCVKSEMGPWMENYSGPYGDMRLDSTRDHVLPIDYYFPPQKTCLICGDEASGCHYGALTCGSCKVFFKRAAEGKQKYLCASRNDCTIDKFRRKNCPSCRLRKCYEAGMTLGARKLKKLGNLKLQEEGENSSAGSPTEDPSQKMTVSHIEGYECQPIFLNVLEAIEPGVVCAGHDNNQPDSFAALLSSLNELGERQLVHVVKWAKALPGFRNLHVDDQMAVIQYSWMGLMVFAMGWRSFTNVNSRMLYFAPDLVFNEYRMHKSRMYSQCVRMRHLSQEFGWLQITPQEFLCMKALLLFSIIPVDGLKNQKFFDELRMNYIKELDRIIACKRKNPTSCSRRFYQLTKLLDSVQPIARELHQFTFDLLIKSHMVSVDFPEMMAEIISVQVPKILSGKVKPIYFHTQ
The experiment in a line: Binding affinity to GST/His-tagged recombinant rat androgen receptor (606 to 902 residues) ligand binding domain expressed in baculovirus expression system assessed as dissociation constant by Biolayer interferometric analysis. (In general: Biolayer interferometry detects binding as a change in optical thickness at a sensor tip.)

Turning to `N#Cc1ccc(O[C@H]2CC[C@H](NC(=O)c3cccnn3)CC2)cc1Cl`, the inhibition at 10 µM in the test on CWR22R [1] and in the test on LNCaP [4] was less than 10% each time. Moreover, the IC50 (as a rule, the concentration needed to halve the response being measured) came to 1.52 nM on Androgen receptor [2] and 60.8 nM against Androgen receptor [3].
In the case of `N#Cc1ccc(O[C@H]2CC[C@H](NC(=O)c3ccc(N4CCC(CN5CCN(c6ccc(/C=C/C(=O)O)cc6)CC5)CC4)nn3)CC2)cc1Cl`, the inhibition at 10 µM was less than 10% in the test on CWR22R [1] and 36% with LNCaP [4].
The matching figures for `CCCNc1ccc(CC2CCN(c3ccc(C(=O)N[C@H]4CC[C@H](Oc5ccc(C#N)c(Cl)c5)CC4)nn3)CC2)cc1`: less than 10% and less than 10%.
For the molecule `N#Cc1ccc(O[C@H]2CC[C@H](NC(=O)c3ccc(-c4ccc(NCCCCCF)cc4)nn3)CC2)cc1Cl`, the inhibition at 10 µM in the test with CWR22R [1] and in the test on LNCaP [4] was less than 10% each time.
For `N#Cc1ccc(O[C@H]2CC[C@H](NC(=O)c3ccc(N4CCC(CN5CCN(CC[S+]([O-])CCCC(F)(F)C(F)(F)F)CC5)CC4)nn3)CC2)cc1Cl` (stereo partly drawn), the results for the inhibition at 10 µM with CWR22R [1] and in the test with LNCaP [4] were less than 10% and 13%, respectively.
With `N#Cc1ccc(O[C@H]2CC[C@H](NC(=O)c3ccc(N4CCC(CNC5CN(CCCF)C5)CC4)nn3)CC2)cc1Cl`, the inhibition at 10 µM is less than 10% in the test on CWR22R [1] and 10% with LNCaP [4]. Also, the values for the IC50 on Androgen receptor [2] and against Androgen receptor [3] were 5.41 nM and greater than 10000 nM, respectively.
Regarding `N#Cc1ccc(O[C@H]2CC[C@H](NC(=O)c3ccc(N4CCC(CC5CN(CCCF)C5)CC4)nn3)CC2)cc1Cl`, the inhibition at 10 µM is less than 10% in the test on CWR22R [1] and 21% in the test with LNCaP [4]. Moreover, the half-inhibitory concentration (IC50) on Androgen receptor [2] turned out to be 3.67 nM.
Regarding `N#Cc1ccc(O[C@H]2CC[C@H](NC(=O)c3ccc(N4CCC(CN5CCN(CCCC(F)(F)C(F)(F)F)CC5)CC4)nn3)CC2)cc1Cl`, the inhibition at 10 µM with CWR22R [1] and in the test on LNCaP [4] was less than 10% each time. The figures for the IC50 at Androgen receptor [2] and against Androgen receptor [3] were 12.4 nM and greater than 10000 nM, respectively.
On to `N#Cc1ccc(O[C@H]2CC[C@H](NC(=O)c3ccc(N4CCC(CN5CCN(c6ccc(NC7CN(CCCF)C7)cc6)CC5)CC4)nn3)CC2)cc1Cl`, for which the IC50 in the test with CWR22R [5] amounted to 5120 nM; with LNCaP [6] it was 6860 nM; on Androgen receptor [2], 6.81 nM; against Androgen receptor [3] it was 394 nM. The inhibition at 10 µM with CWR22R [1] and in the test on LNCaP [4] was greater than 50% throughout.
In the case of `N#Cc1ccc(O[C@H]2CC[C@H](NC(=O)c3ccc(N4CCC(CN5CCN(C6CN(CCCF)C6)CC5)CC4)nn3)CC2)cc1Cl`, the inhibition at 10 µM came out at 29% with CWR22R [1] and 17% in the test on LNCaP [4].
The matching figures for `N#Cc1ccc(O[C@H]2CC[C@H](NC(=O)c3ccc(N4CCC(Cc5ccc(NCCCF)cc5)CC4)nn3)CC2)cc1Cl`: less than 10% and less than 10%.
Consider `N#Cc1ccc(O[C@H]2CC[C@H](NC(=O)c3ccc(-c4ccc(NC5CN(CCCF)C5)cc4)nn3)CC2)cc1Cl`, for which the inhibition at 10 µM came to 28% with CWR22R [1] and 13% with LNCaP [4].
For the molecule `N#Cc1ccc(O[C@H]2CC[C@H](NC(=O)c3ccc(N4CCC(Cc5ccc(NC6CN(CCCF)C6)cc5)CC4)nn3)CC2)cc1Cl`, the Kd – broadly, the constant that tells how readily two partners part at equilibrium – at Androgen receptor [7] amounted to 590 nM.
As for `N#Cc1ccc(O[C@H]2CC[C@H](NC(=O)c3ccc(N4CCC(N5CC(CF)C5)CC4)nn3)CC2)cc1Cl`, the inhibition at 10 µM was less than 10% in the test with CWR22R [1] and 15% in the test on LNCaP [4].
